Experimental data published in US5283246A, “Trimetazidine compounds” (Adir et Compagnie, priority 1991, dated 1994).

Key:
[1] = system: cardiac cells; assay: Oxidative necrosis of cardiac cells induced by hypoxanthine/xanthine-oxidase (XO + HX); type: cell-based, rat (newborn); conditions: Rattus norvegicus, 4 h
Experimental: The cardiac cells of newborn rats are used between the 5th and 6th days after placing in culture. Oxidative necrosis is induced by the free radical-producing enzymatic system hypoxanthine (HX, 1 -mm) and xanthineoxidase (XO, 10 mU/ml). The necrosis is evaluated 4 hours after the addition of XO/HX by measuring by spectrophotometry the cytosolic α-hydroxybutyrate dehydrogenase (a-HBDH) activity liberated in the supernatant. The cells are treated with the test compounds 16 hours and 1 hour before the beginning of the experiment after renewing the medium. At the beginning of the experiment, the treatment is carried out again one last time.
Table 3 lists the necrosis indices of cardiac cells induced by the hypoxanthine/xanthine-oxidase system alone or in the presence of increasing concentrations of the compounds of the invention.

[2] = system: isolated hearts of rats; assay: Hypoxia reoxygenation on the isolated heart of a rat; set-up: species or system Wistar rat
Experimental: The hearts of male Wistar rats (325-375 g--Charles River breed) anaesthetized by the intraperitoneal route with sodium pentobarbital (30 mg/kg) are removed after the injection of heparin i.v. (1 ml/kg) and rapidly perfused by the Langendorff technique at a constant pressure of 76 mmhg and stimulated electrically at 5 Hz. The isovolumetric contractions are recorded by way of a small polyethylene balloon connected to a pressure sensor (P23-Gould) introduced into the left ventricle and inflated so as to obtain a diastolic pressure of approximately 10 mmhg. The physiological solution used, maintained at 37° C., has the following composition (mM): NaCl 118; KCl 4.7; KH2 PO4 1.2; MgCl2 1.2; CaCl2 1.3; NaHCO3 25; glucose 8, pH 7.4/95% O2 +5% CO2.
After a period of stabilization of from 15 to 30 minutes, the heart is subjected to hypoxia for 60 minutes (effected with 95% N2 and 5% CO2; PO2 <40 mmHg), followed by reoxygenation for 30 minutes; the compound is added to the incubation medium 15 minutes before and during the period of hypoxia.

[3] = system: human LDLs; assay: Modification of human LDLs by copper sulphate (lipid peroxidation, MDA production); type: biochemical; conditions: copper sulphate 5×10^-6 M, 24 hours; read-out: IC50, inhibition of copper-induced modification (MDA production) of human LDLs
Experimental: Human LDLs are incubated for 24 hours in the presence of copper sulphate (5×10^-6 M) and in the absence or presence of the compounds tested (10^-7 M to 10^-4 M). After incubation, the peroxidation of the LDLs is evaluated by electrophoresis on agar gel and by the formation of one of the products of lipid peroxidation malonic dialdehyde (MDA), (Parthasarathy S., Young S. G., Witztum J. L., Pittman R. C. and Steinberg, D.; J. Clin. invest. 77; 641-644, 1986).
The activity of the tested compounds is evaluated by calculating those concentrations (IC50) that reduce the production of MDA by 50% compared with control experiments in the absence of the tested compound.

[4] = system: pigs; assay: Myocardial ischaemia induced by coronary stenosis in pigs; type: in vivo, Large White pig
Experimental: The study is carried out on "Large White" pigs of both sexes aged 3 months and weighing 21 to 26 kg. The animals are tranquillized using midazolam (I mg/kg i.m.), then anaesthetized with sodium thiopental (8 mg/kg i.v.). The anaesthesia is maintained by a perfusion of 6 to 8 mg/kg/h. They are immediately intubated and ventilated with a mixture of air+O2. A "T" thoracotomy is carried out by longitudinal section of the sternum and incision between the 4th and 5th rib. The heart is suspended in a pericardial cradle made by cutting and fixing the pericardium at four points to the thoracic muscles. An electromagnetic flow ring is placed around the anterior interventricular branch of the left coronary, and a small pneumatic balloon is placed immediately downstream of that ring. This assembly is for the purpose of effecting coronary stenosis by controlling the flow. Piezoelectric crystals connected to a Triton sonomicrometer are implanted in the lower endocardium of the left ventricular wall according to a circumferential plane perpendicular to the cardiac axis. These crystals are for recording the regional myocardial contractility and endocardial ECGs in the area supplied by the stenosed coronary artery. Epicardial ECGs are also recorded in those areas by means of electrodes fixed to the myocardium. Myocardial ischaemia is effected by inflating the small balloon which induces a reduction in flow of 50 to 60 Two identical 3 minute stenoses with reproducible and reversible effects are carried out, separated by a recovery period of 55 minutes. The treatment is administered by five minutes' perfusion by the venous route 10 minutes before the stenosis perfusion of solvent before first stenosis perfusion of the compound or solvent before the second stenosis. The regional myocardial contractility is determined by the fraction of systolic shortening of the segment lengths comprised between the piezoelectric crystals. The hypokinesis in the ischaemic zone is expressed as a percentage variation in relation to the contractility measured in the control period. The modification of the epicardial and endocardial ECGs in the ischaemic zone consists in a superelevation of the segment S.T. measured in millivolts (mV).

[5] = system: rat aorta; assay: Study on isolated vessels: vascular relaxing effect on a rat aorta contracted by potassium (80 mM); set-up: species or system Wistar rat; conditions: rat aorta rings without endothelium contracted by potassium (80 mM)
Experimental: The thoracic aorta of Wistar rats (325-375 g) that have been anaesthetized by the intraperitoneal route with sodium pentobarbital (30 mg/kg) is removed and dissected into rings 3 mm in length; the endothelium is removed by gentle abrasion using a piece of wood. Each ring is connected to a Statham pressure sensor (UC2-Gould). The initial pressure applied is 2.5 g. The physiological solution used, maintained at 37° C., has the following composition (mM): NaCl 112; KCl 5; KH2 PO4 1; MgSO4 1.2; CaCl2 2.5; NaHCO3 25; glucose 11.; EDTA 0.026. After a stabilization period of 90 minutes, the aorta rings are subjected to a hyperpotassic medium (80 MM KCl and 37 mM NaCl). When the contraction is stable, cumulative concentrations of compound are added to the medium every 15 minutes. The relaxation values obtained enable calculation of the IC50.

[6] = 1 mg/kg intravenous before second stenosis, compared with first stenosis

Which activity at 10 µM ([1]; 10^-5 M, XO + HX, control XO + HX = 100.0, read-out: necrosis index of cardiac cells, XO + HX, compound 10^-5 M) does the source give for `COc1ccc(CN2CCN(CCCCCOc3cc(C)c(O)c(C)c3C)CC2)c(OC)c1OC` [Example 10, 4-(2,3,4-trimethoxybenzyl)-l-[5-(4-hydroxy-2,3,5-trimethylphenoxy)pentyl]piperazine] here?
The activity at 10 µM was 12.6 ± 1.3%.

What about the activity at 1 µM ([1]; 10^-6 M, XO + HX, control XO + HX = 100.0, read-out: necrosis index of cardiac cells, XO + HX, compound 10^-6 M) of the same compound?
The activity at 1 µM was 18.8 ± 3.7%.

What about the activity at 0.1 µM ([1]; 10^-7 M, XO + HX, control XO + HX = 100.0, read-out: necrosis index of cardiac cells, XO + HX, compound 10^-7 M) of the same compound?
Its activity at 0.1 µM is 88.8 ± 0.4%.

What about the minimal effective concentration ([1]; XO + HX induced oxidative necrosis, read-out: concentration at which compounds prove to be protective against necrosis) of the same compound?
Its minimal effective concentration is no less than 0.1 µM.

What about the “functional recovery of the hearts during reoxygenation” value ([2]; Example 1 at 3×10^-7 M, 10 at 10^-7 M, 13 at 7×10^-7 M, 40% in the control experiments) of the same compound?
The value was “more than 70%”.

And the “reduction of the developing contracture at the end of 30 minutes reoxygenation” value ([2]; end of 30 min reoxygenation, Example 1 at 3×10^-7 M, 10 at 10^-7 M, 13 at 7×10^-7 M, vs control)?
The value was “more than 70%”.

What about the “Contracture, hypoxia 10 min” value ([2]; hypoxia 10 min, Example 1 at 3 × 10^-7 M, Example 10 at 10^-7 M, Example 13 at 7 × 10^-7 M, control 23.7 ± 6.8) of the same compound?
The value was 15.3 ± 3.7 mm Hg.

What about the “Contracture, hypoxia 30 min” value ([2]; hypoxia 30 min, Example 1 at 3 × 10^-7 M, Example 10 at 10^-7 M, Example 13 at 7 × 10^-7 M, control 33.7 ± 8.9) of the same compound?
The value was 16.0 ± 6.4 mm Hg.

And the “Contracture, hypoxia 60 min” value ([2]; hypoxia 60 min, Example 1 at 3 × 10^-7 M, Example 10 at 10^-7 M, Example 13 at 7 × 10^-7 M, control 32.3 ± 7.4)?
The value was 14.7 ± 4.4 mm Hg.

What about the “Contracture, reoxygenation 15 min” value ([2]; reoxygenation 15 min, Example 1 at 3 × 10^-7 M, Example 10 at 10^-7 M, Example 13 at 7 × 10^-7 M, control 20.6 ± 7.8) of the same compound?
The value was 7.3 ± 5.5 mm Hg.

What about the “Contracture, reoxygenation 30 min” value ([2]; reoxygenation 30 min, Example 1 at 3 × 10^-7 M, Example 10 at 10^-7 M, Example 13 at 7 × 10^-7 M, control 12.3 ± 6.1) of the same compound?
Its value is 2.7 ± 2.7 mm Hg.

And the IC50 [3]?
The IC50 was 0.03 µM.

And the “ST superelevation, endocardial ECG, second stenosis (ST2)” value ([4]; 1 mg/kg i.v. before second stenosis, ST1 (solvent) of same group 3.4 ± 0.4, control ST2 2.4 ± 0.51)?
Its value is 1.9 ± 0.5 mV.

And the “ST superelevation, epicardial ECG, second stenosis (ST2)” value ([4]; 1 mg/kg i.v. before second stenosis, ST1 (solvent) of same group 4.6 ± 1.0, control ST2 3.16 ± 1.2)?
Its value is 2.5 ± 0.6 mV.

What about the “% residual myocardial contractility, second stenosis (ST2)” value ([4]; 1 mg/kg i.v. before second stenosis, ST1 (solvent) of same group 20.4 ± 3.3, control ST2 25.2 ± 3.0) of the same compound?
The value was 29.4 ± 2.6%.

And the “improvement in the regional contractility in the ischaemic zone” value [4, 6]?
The value was 50%.

And the “reduction of the superelevation of the segment ST, endocardial electrocardiogram” value [4, 6]?
Its value is 45%.

What about the “reduction of the superelevation of the segment ST, epicardial electrocardiogram” value [4, 6] of the same compound?
Its value is 45%.

What about the IC50 [5] of the same compound?
Its IC50 is 2 µM.
